Measured values taken from patent US8629282B2, “Heterocyclic compounds as S1P1 agonists for the treatment of autoimmune and vascular diseases” (Bristol-Myers Squibb Company, priority 2010, dated 2014).
Marks after values point to notes of the source that are not given here.

Key:
[1] = target: S1P3 (membranes from EDG3-Ga15-bla HEK293T cells) (Homo sapiens (Human), UniProt Q99500); assay: Receptor [35S] GTPγS Binding Assay, S1P3; assay type: biochemical; conditions: detection limit 31250 nM
Experimental: (§1) Receptor [35S] GTPγS Binding Assays
(§2) Compounds were loaded in a 384 FALCON® v-bottom plate (0.5 μl/well in a 3-fold dilution). Membranes prepared from S1P1/CHO cells or EDG3-Ga15-bla HEK293T cells were added to the compound plate (40 μl/well, final protein 3 μg/well) with MULTIDROP®. [^35S]GTP (1250 Ci/mmol, Perkin Elmer) was diluted in assay buffer: 20 mM HEPES, pH7.5, 10 mM MgCl2, 150 mM NaCl, 1 mM EGTA, 1 mM DTT, 10 μM GDP, 0.1% fatty acid free BSA, and 10 μg/ml Saponin to 0.4 nM. 40 μl of the [^35S] GTP solution was added to the compound plate with a final concentration of 0.2 nM. The reaction was kept at room temperature for 45 min. At the end of incubation, all the mixtures in the compound plate were transferred to a 384 well FB filter plates via GPCR robot system. The filter plate was washed with water 4 times by using the modified manifold Embla plate washer and dried at 60° C. for 45 min. 30 μl of MicroScint 20 scintillation fluid was added to each well for counting at Packard TOPCOUNT®. EC50 is defined as the agonist concentration that corresponds to 50% of the Ymax (maximal response) obtained for each individual compound tested.
A smaller value for GTPγS S1P1 EC50 value indicated greater activity for the compound in the GTPγS S1P1 binding assay. A larger value for the GTPγS S1P3 EC50 value indicated less activity in the GTPγS S1P3 binding assay.

[2] = target: S1P1 (membranes from S1P1/CHO cells) (Homo sapiens (Human), UniProt P21453); assay: Receptor [35S] GTPγS Binding Assay, S1P1; assay type: biochemical; conditions: for EC50: S1P1/CHO membranes; for GTPγS S1P3/S1P1 (ratio of GTPγS S1P3 EC50 to GTPγS S1P1 EC50): calculated from Table B, S1P3 detection limit 31250 nM
Experimental: as §1, §2
A larger value for the GTPγS S1P3 EC50 value indicated less activity in the GTPγS S1P3 binding assay.

human S1P1 = human S1P1 (Homo sapiens (Human), UniProt P21453); assay: S1P1 Binding Assay (33P-S1P radioligand competition); conditions: membranes of CHO cells expressing human S1P1, 0.03 nM 33P-S1P; rounded to two digits
Experimental: Membranes were prepared from CHO cells expressing human S1P1. Cells were dissociated in buffer containing 20 mM HEPES, pH 7.5, 50 mM NaCl, 2 mM EDTA and Protease Inhibitor cocktail (Roche), and disrupted on ice using the Polytron homogenizer. The homogenate was centrifuged at 20,000 rpm (48,000 G) and the supernatant was discarded. The membrane pellets were resuspended in buffer containing 50 mM HEPES, pH 7.5, 100 mM NaCl, 1 mM MgCl2, 2 mM EDTA and stored in aliquots at −80° C. after protein concentration determination.
Membranes (2 μg/well) and 0.03 nM final concentration of 33P-S1P ligand (1 mCi/ml, American Radiolabeled Chemicals) were added to the compound plates. Binding was performed for 45 minutes at room temperature, terminated by collecting the membranes onto GF/B filter plates, and radioactivity was measured by TOPCOUNT®. The competition data of the test compounds over a range of concentrations was plotted as percentage inhibition of radioligand specific binding. The IC50 is defined as the concentration of competing ligand needed to reduce specific binding by 50%.
The results in Table A were rounded to two digits.

[3] = test system: circulating blood lymphocytes; assay: Blood Lymphocyte Reduction Assay (BLR) in Rodents; assay type: in vivo; conditions: Lewis rats, oral, vs vehicle group
Experimental: Blood Lymphocyte Reduction Assay (BLR) in Rodents
Lewis rats were dosed orally with test article (as a solution or suspension in the vehicle) or vehicle alone (polyethylene glycol 300, “PEG300”). Blood was drawn at 4 hr by retro-orbital bleeding. Blood lymphocyte counts were determined on an ADVIA® 120 Hematology Analyzer (Siemens Healthcare Diagnostics). The results were measured as a reduction in the percentage of circulating lymphocytes as compared to the vehicle treated group at the 4 hr measurement. The results represent the average results of all animals within each treatment group (n=3-4).
The following examples were tested in the Blood Lymphocyte Reduction assay (BLR) described herein above and the results are shown in Table D for rats.

Sequence of human S1P1 (P21453 whole entry): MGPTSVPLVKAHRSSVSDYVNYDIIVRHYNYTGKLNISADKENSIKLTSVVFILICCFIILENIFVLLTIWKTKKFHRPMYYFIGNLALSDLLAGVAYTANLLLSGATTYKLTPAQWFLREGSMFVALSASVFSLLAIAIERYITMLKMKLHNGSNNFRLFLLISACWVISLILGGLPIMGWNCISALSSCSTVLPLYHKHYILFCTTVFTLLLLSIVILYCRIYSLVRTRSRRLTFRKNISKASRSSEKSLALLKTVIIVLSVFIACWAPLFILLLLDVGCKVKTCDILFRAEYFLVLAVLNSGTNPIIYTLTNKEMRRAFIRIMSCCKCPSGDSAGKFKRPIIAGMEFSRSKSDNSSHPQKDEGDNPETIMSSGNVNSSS
Sequence of S1P1 (membranes from S1P1/CHO cells) (P21453 whole entry): as above
Sequence of S1P3 (membranes from EDG3-Ga15-bla HEK293T cells) (Q99500 whole entry): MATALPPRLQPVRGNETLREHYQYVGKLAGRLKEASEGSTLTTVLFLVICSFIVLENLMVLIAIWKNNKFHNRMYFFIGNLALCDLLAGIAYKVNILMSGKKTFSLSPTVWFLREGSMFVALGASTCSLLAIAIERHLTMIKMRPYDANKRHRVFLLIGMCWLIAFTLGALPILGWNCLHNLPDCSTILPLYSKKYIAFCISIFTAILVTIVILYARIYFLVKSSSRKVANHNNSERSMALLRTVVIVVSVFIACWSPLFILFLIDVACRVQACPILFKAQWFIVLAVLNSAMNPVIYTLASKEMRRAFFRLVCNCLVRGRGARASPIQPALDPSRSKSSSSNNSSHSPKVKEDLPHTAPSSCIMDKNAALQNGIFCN

With `N[C@@H]1COc2cc(-c3noc(-c4onc(-c5ccccc5)c4C(F)(F)F)n3)ccc2[C@H]1O` (racemic) [Example 4, (3R*,4R*)-3-amino-7-(5-(3-phenyl-4-(trifluoromethyl)isoxazol-5-yl)-1,2,4-oxadiazol-3-yl)chroman-4-ol] the EC50 [1] was 13 µM, the EC50 [2] was 0.08 µM and the IC50 (human S1P1) was 0.023 µM.

Work on `O=C(O)CCN[C@H]1COc2cc(-c3noc(-c4onc(-c5ccccc5)c4C(F)(F)F)n3)ccc2[C@@H]1O` (racemic) [Example 5, 3-((3R*,4R*)-4-hydroxy-7-(5-(3-phenyl-4-(trifluoromethyl)isoxazol-5-yl)-1,2,4-oxadiazol-3-yl)chroman-3-ylamino)propanoic acid] yielded an EC50 [1] of 25 µM.

With `N[C@@H]1COc2cc(-c3noc(-c4onc(-c5ccccc5)c4C(F)(F)F)n3)ccc2[C@H]1O` (relative stereo) [Example 4, (3R*,4R*)-3-amino-7-(5-(3-phenyl-4-(trifluoromethyl)isoxazol-5-yl)-1,2,4-oxadiazol-3-yl)chroman-4-ol] the “GTPγS S1P3/S1P1 (ratio of GTPγS S1P3 EC50 to GTPγS S1P1 EC50)” value [2] was 160.

In the case of `CCOC(=O)C1CCCC(N[C@@H]2COc3cc(-c4noc(-c5onc(-c6ccccc6)c5C(F)(F)F)n4)ccc3[C@@H]2O)C1` (relative stereo) [Example 13, ethyl 3-((3R*,4S*)-4-hydroxy-7-(5-(3-phenyl-4-(trifluoromethyl)isoxazol-5-yl)-1,2,4-oxadiazol-3-yl)chroman-3-ylamino)cyclohexanecarboxylate], the EC50 [1] is reported as greater than 31 µM, the EC50 [2] is reported as 0.16 µM and the “GTPγS S1P3/S1P1 (ratio of GTPγS S1P3 EC50 to GTPγS S1P1 EC50)” value [2] is reported as > 200*. For the same compound, the IC50 (human S1P1) was 0.63 µM.

For `O=C(O)CC1CCCN([C@@H]2COc3cc(-c4noc(-c5onc(-c6ccccc6)c5C(F)(F)F)n4)ccc3[C@@H]2O)C1` (single isomer, unassigned) [Example 50], the EC50 [1] was 24 µM, the EC50 [2] was 0.027 µM and the “GTPγS S1P3/S1P1 (ratio of GTPγS S1P3 EC50 to GTPγS S1P1 EC50)” value [2] was 870. It also gave an IC50 (human S1P1) of 0.057 µM.

For `N[C@@H]1COc2cc(-c3noc(-c4onc(-c5ccccc5)c4C(F)(F)F)n3)ccc2[C@@H]1O` [Example 9, (3R,4S)-3-Amino-7-(5-(3-phenyl-4-(trifluoromethyl)isoxazol-5-yl)-1,2,4-oxadiazol-3-yl)chroman-4-ol], the EC50 [1] was 8.6 µM, the EC50 [2] was 0.033 µM and the “GTPγS S1P3/S1P1 (ratio of GTPγS S1P3 EC50 to GTPγS S1P1 EC50)” value [2] was 260. The IC50 (human S1P1) was 0.039 µM.

With `O=C(O)[C@H]1C[C@@H](N[C@H]2COc3cc(-c4noc(-c5onc(-c6ccccc6)c5C(F)(F)F)n4)ccc3[C@H]2O)C1` [Example 25, (1R,3S)-3-((3S,4R)-4-hydroxy-7-(5-(3-phenyl-4-(trifluoromethyl)isoxazol-5-yl)-1,2,4-oxadiazol-3-yl)chroman-3-ylamino)cyclobutanecarboxylic acid] the EC50 [1] was 12 µM and the “% Reduction in Lymphocytes at 4 hr.” value ([3]; 3 mg/kg) was 93%.

With `O=C(O)C1(CN[C@@H]2COc3cc(-c4noc(-c5onc(-c6ccccc6)c5C(F)(F)F)n4)ccc3[C@@H]2O)CC1` [Example 30, 1-(((3R,4S)-4-hydroxy-7-(5-(3-phenyl-4-(trifluoromethyl)isoxazol-5-yl)-1,2,4-oxadiazol-3-yl)chroman-3-ylamino)methyl)cyclopropanecarboxylic acid] the EC50 [1] was 8 µM, the EC50 [2] was 0.0065 µM and the “GTPγS S1P3/S1P1 (ratio of GTPγS S1P3 EC50 to GTPγS S1P1 EC50)” value [2] was 1200. The IC50 (human S1P1) was 0.013 µM.

With `O=C(O)C1(CN[C@@H]2COc3cc(-c4noc(-c5onc(-c6ccccc6)c5C(F)(F)F)n4)ccc3[C@@H]2O)CCCCC1` [Example 39, 1-(((3R,4S)-4-hydroxy-7-(5-(3-phenyl-4-(trifluoromethyl)isoxazol-5-yl)-1,2,4-oxadiazol-3-yl)chroman-3-ylamino)methyl)cyclohexanecarboxylic acid] the EC50 [1] was greater than 31 µM, the EC50 [2] was 0.085 µM and the “GTPγS S1P3/S1P1 (ratio of GTPγS S1P3 EC50 to GTPγS S1P1 EC50)” value [2] was > 370*. It also gave an IC50 (human S1P1) of 0.541 µM.

For `O=C(O)C1(CN[C@@H]2COc3cc(-c4noc(-c5onc(-c6ccccc6)c5C(F)(F)F)n4)ccc3[C@@H]2O)CCC1` [Example 41, 1-(((3R,4S)-4-hydroxy-7-(5-(3-phenyl-4-(trifluoromethyl)isoxazol-5-yl)-1,2,4-oxadiazol-3-yl)chroman-3-ylamino)methyl)cyclobutanecarboxylic acid], the EC50 [1] was 8.4 µM, the EC50 [2] was 0.016 µM and the “GTPγS S1P3/S1P1 (ratio of GTPγS S1P3 EC50 to GTPγS S1P1 EC50)” value [2] was 510. The IC50 (human S1P1) was 0.02 µM and the “% Reduction in Lymphocytes at 4 hr.” value ([3]; 0.5 mg/kg) was 11%.

`O=C(O)CCN[C@@H]1COc2cc(-c3noc(-c4onc(-c5ccccc5)c4C(F)(F)F)n3)ccc2[C@@H]1O` [Example 53, 3-((3R,4S)-4-Hydroxy-7-(5-(3-phenyl-4-(trifluoromethyl)isoxazol-5-yl)-1,2,4-oxadiazol-3-yl)chroman-3-ylamino)propanoic acid] showed an EC50 [1] of 22 µM.

In the case of `O=C(O)[C@H]1CCC[C@H](N[C@@H]2COc3cc(-c4noc(-c5onc(-c6ccccc6)c5C(F)(F)F)n4)ccc3[C@@H]2O)C1` [Example 57, (1S,3S)-3-((3R,4S)-4-hydroxy-7-(5-(3-phenyl-4-(trifluoromethyl)isoxazol-5-yl)-1,2,4-oxadiazol-3-yl)chroman-3-ylamino)cyclohexanecarboxylic acid], the EC50 [1] is reported as 7.3 µM, the EC50 [2] is reported as 0.001 µM and the “GTPγS S1P3/S1P1 (ratio of GTPγS S1P3 EC50 to GTPγS S1P1 EC50)” value [2] is reported as 7300. For the same compound, the IC50 (human S1P1) was 0.0007 µM and the “% Reduction in Lymphocytes at 4 hr.” value ([3]; 0.5 mg/kg) was 69%.

In the case of `O=C(O)[C@@H]1CCC[C@@H](N[C@@H]2COc3cc(-c4noc(-c5onc(-c6ccccc6)c5C(F)(F)F)n4)ccc3[C@@H]2O)C1` [Example 65, (1R,3R)-3-((3R,4S)-4-hydroxy-7-(5-(3-phenyl-4-(trifluoromethyl)isoxazol-5-yl)-1,2,4-oxadiazol-3-yl)chroman-3-ylamino)cyclohexanecarboxylic acid], the EC50 [1] is reported as 11 µM, the EC50 [2] is reported as 0.0011 µM and the “GTPγS S1P3/S1P1 (ratio of GTPγS S1P3 EC50 to GTPγS S1P1 EC50)” value [2] is reported as 9600. The IC50 (human S1P1) was 0.0066 µM and the “% Reduction in Lymphocytes at 4 hr.” value ([3]; 0.5 mg/kg) was 55%.

With `O=C(O)CN[C@@H]1COc2cc(-c3noc(-c4onc(-c5ccccc5)c4C(F)(F)F)n3)ccc2[C@@H]1O` [Example 68, 2-((3R,4S)-4-hydroxy-7-(5-(3-phenyl-4-(trifluoromethyl)isoxazol-5-yl)-1,2,4-oxadiazol-3-yl)chroman-3-ylamino)acetic acid] the EC50 [1] was 5.2 µM, the EC50 [2] was 0.0054 µM and the “GTPγS S1P3/S1P1 (ratio of GTPγS S1P3 EC50 to GTPγS S1P1 EC50)” value [2] was 960. It also gave an IC50 (human S1P1) of 0.0038 µM.
